Laboratory results taken from US10829520B2, “Beta-hairpin peptidomimetics” (POLYPHOR AG, priority 2015, dated 2020).
Where a SMILES comes first, the peptide text is derived from it. Bridges are numbered along the chain shown (N, C = ends). Roman numbers before positions name the chains, in order. [ ]: non-standard residue; d: D form. NMeDab = CN[C@@H](CCN)C(=O)O; Tle = CC(C)(C)[C@H](N)C(=O)O; dDab = NCC[C@@H](N)C(=O)O; Nle = CCCC[C@H](N)C(=O)O; Orn = NCCC[C@H](N)C(=O)O; Dab = NCC[C@H](N)C(=O)O; Dap = NC[C@H](N)C(=O)O

Key:
Type in all cases: cell-based
[1] = tested on: Pseudomonas aeruginosa ATCC 27853; conditions: ATCC 27853
Method in brief: (§1)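 MIC in μg/mL; CLSI microdilution; cation-adjusted Mueller-Hinton II with Polysorbate 80 (0.002%); 10^6 CFU/mL; 35° C, 18-20 h.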

Escherichia coli 926415 = conditions: 926415
[2] = tested on: Acinetobacter baumannii 872842; conditions: 872842
[3] = tested on: Klebsiella pneumoniae SSI #3010; conditions: SSI #3010
Method in brief: as §1

[4] = tested on: Escherichia coli ATCC 25922; conditions: ATCC 25922
Method in brief: as §1

[5] = tested on: Klebsiella pneumoniae 968733; conditions: 968733
[6] = tested on: Acinetobacter baumannii DSM 30008; conditions: DSM 30008
Method in brief: as §1

[7] = tested on: human red blood cells (hRBC); assay: Hemolysis of human red blood cells; conditions: red cells of human, 1 h
Method in brief: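 Percent hemolysis = OD540 of peptide-treated supernatant relative to the 2.5% Triton X-100 (100%) control, PBS containing 0.001% acetic acid defining 0%. Peptides tested at 100 μg/mL against 20% (v/v) washed human RBC, 1 h, 37 °C, 300 rpm.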

SMILES | Pseudomonas aeruginosa ATCC 27853 MIC [1] | Escherichia coli 926415 MIC (Escherichia coli 926415) | Acinetobacter baumannii 872842 MIC [2] | Klebsiella pneumoniae SSI #3010 MIC [3] | Escherichia coli ATCC 25922 MIC [4] | Klebsiella pneumoniae 968733 MIC [5] | Acinetobacter baumannii DSM 30008 MIC [6] | Hemolysis at 100 μg/mL ([7]; 100 μg/mL) | Hemolysis at 100 μg/mL [7]; 100
CCCC[C@@H]1NC(=O)[C@@H]2CCCN2C(=O)[C@H]2CCCN2C(=O)[C@H](CO)NC(=O)[C@H](C)NC(=O)[C@H](C(C)(C)C)NC(=O)[C@@H]2CCC(=O)NCC[C@H](NC(=O)[C@H](Cc3ccc(O)cc3)NC(=O)[C@H](CN)NC1=O)C(=O)N[C@@H](CCCN)C(=O)N[C@H](C(=O)N[C@H](CCN)C(=O)N[C@H]1CCNC(=O)[C@H]([C@@H](C)O)NC(=O)[C@H](CCN)NC(=O)[C@H](CCN)NC(=O)[C@H](CC(C)C)NC(=O)[C@@H](Cc3ccccc3)NC(=O)[C@H](CCN)NC1=O)CSSC[C@H](N)C(=O)N[C@@H](Cc1c[nH]c3ccccc13)C(=O)N2 [Ex. 210] (H-CWE[Tle]AS[dP]P[Nle][Dap]Y[Dab][Orn]C[dDab][Dab][Dab][dF]L[Dab][Dab]T; disulfide 1-14; lactam 3-12, 16-C) | 1 µg/mL | 0.5 µg/mL | 2 µg/mL | 0.5 µg/mL | 0.25 µg/mL | 4 µg/mL | 1 µg/mL | 1% | –
CCCC[C@@H]1NC(=O)[C@@H]2CCCN2C(=O)[C@H]2CCCN2C(=O)[C@H](CO)NC(=O)[C@H](C)NC(=O)[C@H](C(C)(C)C)NC(=O)[C@@H](NC(=O)[C@H](Cc2c[nH]c3ccccc23)NC(=O)[C@H](CCN)NC(C)=O)CSSC[C@@H](C(=O)N[C@@H](CCCN)C(=O)N[C@H](C(=O)N[C@@H](CCN)C(=O)N[C@H]2CCNC(=O)[C@H]([C@@H](C)O)NC(=O)[C@H](CCN)NC(=O)[C@H](CCN)NC(=O)[C@H](CC(C)C)NC(=O)[C@@H](Cc3ccccc3)NC(=O)[C@H](CCN)NC2=O)[C@@H](C)O)NC(=O)[C@H](Cc2ccc(O)cc2)NC(=O)[C@H](CO)NC1=O [Ex. 36] (Ac-[Dab]WC[Tle]AS[dP]P[Nle]SYC[Orn]T[Dab][Dab][Dab][dF]L[Dab][Dab]T; disulfide 3-12; lactam 16-C) | 0.5 µg/mL | 0.25 µg/mL | 0.5 µg/mL | 0.25 µg/mL | 0.25 µg/mL | 0.5 µg/mL | 0.25 µg/mL | <1% | –
CCCC[C@@H]1NC(=O)[C@@H]2CCCN2C(=O)[C@H]2CCCN2C(=O)[C@H](CO)NC(=O)[C@H](C)NC(=O)[C@H](C(C)(C)C)NC(=O)[C@H](CCN)NC(=O)[C@H](Cc2c[nH]c3ccccc23)NC(=O)[C@H](CCN)NC(=O)[C@@H](CCN)NC(=O)[C@H](CC(=O)N(C)[C@@H](CCN)C(=O)N[C@H]2CCNC(=O)[C@H]([C@@H](C)O)NC(=O)[C@H](CCN)NC(=O)[C@H](CCN)NC(=O)[C@H](CC(C)C)NC(=O)[C@@H](CC(C)C)NC(=O)[C@H](CCN)NC2=O)NC(=O)[C@H](CCN)NC(=O)[C@H](Cc2ccc(O)cc2)NC(=O)[C@H](CO)NC1=O [Ex. 73] (I: cyclo(W[Dab][Tle]AS[dP]P[Nle]SY[Dab]D[dDab][Dab]) / II: [NMeDab][Dab][Dab][dL]L[Dab][Dab]T; amide I:12-II:N; lactam II:2-II:C) | 0.25 µg/mL | 0.5 µg/mL | 0.5 µg/mL | 0.5 µg/mL | 0.25 µg/mL | 0.5 µg/mL | 0.25 µg/mL | – | 1%
CC(C)C[C@@H]1NC(=O)[C@@H](CC(C)C)NC(=O)[C@H](CCN)NC(=O)[C@@H](NC(=O)[C@H](CCN)NC(=O)[C@@H](NC(=O)[C@H](CCN)NC(=O)CC[C@@H]2NC(=O)[C@H](CCN)NC(=O)[C@H](Cc3ccc(O)cc3)NC(=O)[C@H](CO)NC(=O)[C@H](CC(C)C)NC(=O)[C@@H]3CCCN3C(=O)[C@H]3CCCN3C(=O)[C@H](CO)NC(=O)[C@H]([C@@H](C)O)NC(=O)[C@H](C(C)C)NC(=O)[C@H](CCN)NC(=O)[C@H](Cc3c[nH]c4ccccc34)NC(=O)[C@H](CCN)NC(=O)[C@@H](CCN)NC2=O)[C@@H](C)O)CCNC(=O)[C@H]([C@@H](C)O)NC(=O)[C@H](CCN)NC(=O)[C@H](CCN)NC1=O [Ex. 92] (I: cyclo(W[Dab]VTS[dP]PLSY[Dab]E[dDab][Dab]) / II: [Dab]T[Dab][Dab][Dab][dL]L[Dab][Dab]T; amide I:12-II:N; lactam II:4-II:C) | 0.25 µg/mL | 0.5 µg/mL | 0.5 µg/mL | 0.25 µg/mL | 0.125 µg/mL | 0.5 µg/mL | 0.25 µg/mL | – | 1%
CC(C)C[C@@H]1NC(=O)[C@@H](CC(C)C)NC(=O)[C@H](CCN)NC(=O)[C@@H](NC(=O)[C@H](CCN)NC(=O)[C@@H](NC(=O)[C@H](CCN)NC(=O)CC[C@@H]2NC(=O)[C@H](CCN)NC(=O)[C@H](Cc3ccc(O)cc3)NC(=O)[C@H](CO)NC(=O)[C@H](CC(C)C)NC(=O)[C@@H]3CCCN3C(=O)[C@H]3CCCN3C(=O)[C@H](Cc3ccc(O)cc3)NC(=O)[C@H]([C@@H](C)O)NC(=O)[C@H](C(C)C)NC(=O)[C@H](CCN)NC(=O)[C@H](Cc3c[nH]c4ccccc34)NC(=O)[C@H](CCN)NC(=O)[C@@H](CCN)NC2=O)[C@@H](C)O)CCNC(=O)[C@H]([C@@H](C)O)NC(=O)[C@H](CCN)NC(=O)[C@H](CCN)NC1=O [Ex. 96] (I: cyclo(W[Dab]VTY[dP]PLSY[Dab]E[dDab][Dab]) / II: [Dab]T[Dab][Dab][Dab][dL]L[Dab][Dab]T; amide I:12-II:N; lactam II:4-II:C) | 0.5 µg/mL | 0.25 µg/mL | 1 µg/mL | 0.25 µg/mL | 0.125 µg/mL | 1 µg/mL | 0.25 µg/mL | – | 4%
CCCC[C@@H]1NC(=O)[C@@H]2CCCN2C(=O)[C@H]2CCCN2C(=O)[C@H](CO)NC(=O)[C@H](C)NC(=O)[C@H](C(C)(C)C)NC(=O)[C@@H](NC(=O)[C@H](Cc2c[nH]c3ccccc23)NC(C)=O)CSSC[C@@H](C(=O)N[C@@H](CCCN)C(=O)N[C@H](CCN)C(=O)N[C@H]2CCNC(=O)[C@H]([C@@H](C)O)NC(=O)[C@H](CCN)NC(=O)[C@H](CCN)NC(=O)[C@H](CC(C)C)NC(=O)[C@@H](Cc3ccccc3)NC(=O)[C@H](CCN)NC2=O)NC(=O)[C@H](Cc2ccc(O)cc2)NC(=O)[C@H](CO)NC1=O [Ex. 49] (Ac-WC[Tle]AS[dP]P[Nle]SYC[Orn][dDab][Dab][Dab][dF]L[Dab][Dab]T; disulfide 2-11; lactam 14-C) | 1 µg/mL | 0.5 µg/mL | 1 µg/mL | 0.5 µg/mL | 0.25 µg/mL | 1 µg/mL | 0.25 µg/mL | <1% | –
